From US20240150325A1, “NOVEL COMPOUND AS PROTEIN KINASE INHIBITORS” (LG CHEM, LTD., priority 2021, published 2024)
pIC50: −log10 of the molar value.

Key:
MET = MET (Homo sapiens, UniProt P08581); experiment: Evaluation of inhibitory activity to MET; format: biochemical
Description: (§1) Experimental Example 1. Evaluation of Inhibitory Activity to RON and MET

RON = RON (Homo sapiens, UniProt Q04912); experiment: Evaluation of inhibitory activity to RON; format: biochemical
Description: as §1

Sequence of MET (P08581 25-1390): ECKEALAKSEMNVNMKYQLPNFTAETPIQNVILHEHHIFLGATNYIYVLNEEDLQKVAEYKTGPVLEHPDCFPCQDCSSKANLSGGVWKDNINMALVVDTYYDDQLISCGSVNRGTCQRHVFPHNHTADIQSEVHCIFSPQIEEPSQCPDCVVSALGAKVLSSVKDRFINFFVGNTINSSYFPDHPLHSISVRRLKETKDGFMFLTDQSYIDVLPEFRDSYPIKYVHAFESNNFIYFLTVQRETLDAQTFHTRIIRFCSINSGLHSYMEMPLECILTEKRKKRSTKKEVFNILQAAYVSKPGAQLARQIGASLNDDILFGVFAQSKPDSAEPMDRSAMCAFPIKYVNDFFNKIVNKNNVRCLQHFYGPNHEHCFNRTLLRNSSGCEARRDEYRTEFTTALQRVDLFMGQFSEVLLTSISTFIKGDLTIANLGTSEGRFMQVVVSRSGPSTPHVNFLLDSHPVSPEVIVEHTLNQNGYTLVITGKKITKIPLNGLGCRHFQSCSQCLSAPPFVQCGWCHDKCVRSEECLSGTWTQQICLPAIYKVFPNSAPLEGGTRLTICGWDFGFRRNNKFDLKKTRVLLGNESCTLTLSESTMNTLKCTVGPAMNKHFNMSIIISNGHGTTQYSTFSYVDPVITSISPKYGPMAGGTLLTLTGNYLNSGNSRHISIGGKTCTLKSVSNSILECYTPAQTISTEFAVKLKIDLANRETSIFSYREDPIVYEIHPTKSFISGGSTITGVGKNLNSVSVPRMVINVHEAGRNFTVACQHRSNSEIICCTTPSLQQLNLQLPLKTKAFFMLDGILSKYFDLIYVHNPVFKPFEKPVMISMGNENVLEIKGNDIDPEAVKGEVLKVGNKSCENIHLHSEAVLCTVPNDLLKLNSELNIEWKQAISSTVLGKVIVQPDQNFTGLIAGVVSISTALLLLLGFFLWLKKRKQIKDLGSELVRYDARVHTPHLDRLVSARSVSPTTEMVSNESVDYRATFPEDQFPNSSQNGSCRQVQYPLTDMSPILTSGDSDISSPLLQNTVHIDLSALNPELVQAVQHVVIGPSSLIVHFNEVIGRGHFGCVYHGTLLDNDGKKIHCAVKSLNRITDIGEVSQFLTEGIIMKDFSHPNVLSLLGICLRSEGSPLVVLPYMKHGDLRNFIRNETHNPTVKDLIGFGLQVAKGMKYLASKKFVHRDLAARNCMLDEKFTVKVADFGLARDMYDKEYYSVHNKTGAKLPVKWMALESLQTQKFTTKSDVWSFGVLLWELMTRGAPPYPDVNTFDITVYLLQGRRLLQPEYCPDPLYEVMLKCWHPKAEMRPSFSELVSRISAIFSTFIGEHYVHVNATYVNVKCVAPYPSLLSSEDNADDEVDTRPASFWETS
Sequence of RON (Q04912 25-1400): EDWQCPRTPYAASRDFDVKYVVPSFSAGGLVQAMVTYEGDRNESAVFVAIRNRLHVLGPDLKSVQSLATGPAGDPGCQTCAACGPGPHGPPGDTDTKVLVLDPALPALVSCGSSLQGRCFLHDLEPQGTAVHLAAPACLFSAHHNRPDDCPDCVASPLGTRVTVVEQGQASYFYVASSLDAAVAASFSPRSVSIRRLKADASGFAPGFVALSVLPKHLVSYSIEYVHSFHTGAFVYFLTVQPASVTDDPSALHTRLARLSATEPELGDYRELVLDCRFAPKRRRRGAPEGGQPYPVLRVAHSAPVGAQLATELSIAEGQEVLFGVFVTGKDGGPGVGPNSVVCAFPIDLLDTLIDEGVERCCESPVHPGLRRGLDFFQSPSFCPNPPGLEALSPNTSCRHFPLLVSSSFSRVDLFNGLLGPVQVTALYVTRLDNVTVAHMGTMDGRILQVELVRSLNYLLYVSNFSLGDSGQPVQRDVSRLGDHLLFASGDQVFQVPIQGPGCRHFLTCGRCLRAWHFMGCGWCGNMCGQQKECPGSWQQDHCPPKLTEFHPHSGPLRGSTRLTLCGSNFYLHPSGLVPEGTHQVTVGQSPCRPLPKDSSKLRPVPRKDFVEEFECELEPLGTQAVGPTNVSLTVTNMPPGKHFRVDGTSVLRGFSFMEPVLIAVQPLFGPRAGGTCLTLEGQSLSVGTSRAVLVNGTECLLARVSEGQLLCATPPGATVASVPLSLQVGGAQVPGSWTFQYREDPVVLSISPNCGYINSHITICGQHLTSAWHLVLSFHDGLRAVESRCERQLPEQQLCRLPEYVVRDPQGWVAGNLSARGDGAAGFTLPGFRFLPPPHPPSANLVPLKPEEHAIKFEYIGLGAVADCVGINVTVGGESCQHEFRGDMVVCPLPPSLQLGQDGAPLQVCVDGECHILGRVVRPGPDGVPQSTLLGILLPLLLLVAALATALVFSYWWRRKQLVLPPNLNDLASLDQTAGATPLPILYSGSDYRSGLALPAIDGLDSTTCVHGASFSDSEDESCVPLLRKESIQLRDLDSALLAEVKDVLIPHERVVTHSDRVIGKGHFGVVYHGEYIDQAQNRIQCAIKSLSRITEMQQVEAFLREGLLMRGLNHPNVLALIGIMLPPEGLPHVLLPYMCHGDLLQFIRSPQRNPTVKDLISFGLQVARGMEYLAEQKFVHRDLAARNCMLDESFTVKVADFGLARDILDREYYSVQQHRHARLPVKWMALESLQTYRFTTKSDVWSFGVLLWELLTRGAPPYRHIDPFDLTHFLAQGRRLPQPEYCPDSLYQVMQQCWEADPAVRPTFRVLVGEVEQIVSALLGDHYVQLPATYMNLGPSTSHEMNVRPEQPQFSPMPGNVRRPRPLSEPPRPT

## CCOc1ccn(-c2ccc(F)cc2)c(=O)c1C(=O)Nc1ccc(-c2ccc(O)c(-c3ccnc(N)n3)c2)c(F)c1 [Example 1, N-(3′-(2-aminopyrimidin-4-yl)-2-fluoro-4′-hydroxy-[1,1′-biphenyl]-4-yl)-4-ethoxy-1-(4-fluorophenyl)-2-oxo-1,2-dihydropyridin-3-carboxamide]
MET
  pIC50: 6.21
RON
  pIC50: 6.84

## COc1ccn(-c2ccc(F)cc2)c(=O)c1C(=O)Nc1ccc(-c2ccc(O)c(-c3ccnc(N)n3)c2)c(F)c1 [Example 2, N-(3′-(2-aminopyrimidin-4-yl)-2-fluoro-4′-hydroxy-[1,1′-biphenyl]-4-yl)-1-(4-fluorophenyl)-4-methoxy-2-oxo-1,2-dihydropyridin-3-carboxamide]
MET
  pIC50: 6.23
RON
  pIC50: 6.88

## Cn1cc(-c2cc(C(=O)Nc3ccc(-c4ccc(O)c(-c5ccnc(N)n5)c4)c(F)c3)c(=O)n(-c3ccc(F)cc3)c2)cn1 [Example 7, N-(3′-(2-aminopyrimidin-4-yl)-2-fluoro-4′-hydroxy-[1,1′-biphenyl]-4-yl)-1-(4-fluorophenyl)-5-(1-methyl-1H-pyrazol-4-yl)-2-oxo-1,2-dihydropyridin-3-carboxamide]
MET
  pIC50: 5.65
RON
  pIC50: 6.03

## Nc1nccc(-c2cc(-c3ccc(NC(=O)c4cc(C5CC5)cn(-c5ccc(F)cc5)c4=O)cc3F)ccc2O)n1 [Example 8]
MET
  pIC50: 5.68
RON
  pIC50: 6.08

## Nc1nccc(-c2cc(-c3ccc(NC(=O)c4ccc(CO)n(-c5ccc(F)cc5)c4=O)cc3F)ccc2O)n1 [Example 10, N-(3′-(2-aminopyrimidin-4-yl)-2-fluoro-4′-hydroxy-[1,1′-biphenyl]-4-yl)-1-(4-fluorophenyl)-6-(hydroxymethyl)-2-oxo-1,2-dihydropyridin-3-carboxamide]
MET
  pIC50: 5.77
RON
  pIC50: 6.07

## CCOc1ccn(-c2ccc(F)cc2)c(=O)c1C(=O)Nc1ccc(-c2ccc(O)c(-c3ccnc(N)n3)c2)c(C)c1 [Example 13, N-(3′-(2-aminopyrimidin-4-yl)-4′-hydroxy-2-methyl-[1,1′-biphenyl]-4-yl)-4-ethoxy-1-(4-fluorophenyl)-2-oxo-1,2-dihydropyridin-3-carboxamide]
MET
  pIC50: 5.53
RON
  pIC50: 5.88

## CCOc1ccn(-c2ccc(F)cc2)c(=O)c1C(=O)Nc1ccc(-c2ccc(OC)c(-c3cnc(N)nc3)c2)c(F)c1 [Example 17, N-(3′-(2-aminopyrimidin-5-yl)-2-fluoro-4′-methoxy-[1,1′-biphenyl]-4-yl)-4-ethoxy-1-(4-fluorophenyl)-2-oxo-1,2-dihydropyridin-3-carboxamide]
MET
  pIC50: < 5.00
RON
  pIC50: 5.64

## CCOc1ccn(-c2ccc(F)cc2)c(=O)c1C(=O)Nc1ccc(Nc2ccc(O)c(-c3ccnc(N)n3)c2)c(F)c1 [Example 28, N-(4-((3-(2-aminopyrimidin-4-yl)-4-hydroxyphenyl)amino)-3-fluorophenyl)-4-ethoxy-1-(4-fluorophenyl)-2-oxo-1,2-dihydropyridin-3-carboxamide]
MET
  pIC50: 6.74
RON
  pIC50: 5.93

## Cc1ccc(C(=O)Nc2ccc(Nc3ccc(O)c(-c4ccnc(N)n4)c3)c(F)c2)c(=O)n1-c1ccc(F)cc1 [Example 30, N-(4-((3-(2-aminopyrimidin-4-yl)-4-hydroxyphenyl)amino)-3-fluorophenyl)-1-(4-fluorophenyl)-6-methyl-2-oxo-1,2-dihydropyridin-3-carboxamide]
MET
  pIC50: 7.31
RON
  pIC50: 6.61

## CCOc1ccn(-c2ccc(F)cc2)c(=O)c1C(=O)Nc1ccc(Nc2ccc(O)c(-c3ccnc(N)n3)c2)cc1F [Example 34, N-(4-((3-(2-aminopyrimidin-4-yl)-4-hydroxyphenyl)amino)-2-fluorophenyl)-4-ethoxy-1-(4-fluorophenyl)-2-oxo-1,2-dihydropyridin-3-carboxamide]
MET
  pIC50: 6.26
RON
  pIC50: 5.64

## CC(=O)c1cc(Oc2ccc(NC(=O)c3ccc(C)n(-c4ccc(F)cc4)c3=O)cc2F)ccc1O [Example 37, N-(4-(3-acetyl-4-hydroxyphenoxy)-3-fluorophenyl)-1-(4-fluorophenyl)-6-methyl-2-oxo-1,2-dihydropyridin-3-carboxamide]
MET
  pIC50: 6.02

## C/C(=N\O)c1cc(Oc2ccc(NC(=O)c3ccc(C)n(-c4ccc(F)cc4)c3=O)cc2F)ccc1O [Example 38, (E)-N-(3-fluoro-4-(4-hydroxy-3-(1-(hydroxyimino)ethyl)phenoxy)phenyl)-1-(4-fluorophenyl)-6-methyl-2-oxo-1,2-dihydropyridin-3-carboxamide]
MET
  pIC50: 6.45

## CCOc1ccn(-c2ccc(F)cc2)c(=O)c1C(=O)Nc1ccc(Oc2ccc(O)c(-c3ccnc(N)n3)c2)c(F)c1 [Example 39, N-(4-(3-(2-aminopyrimidin-4-yl)-4-hydroxyphenoxy)-3-fluorophenyl)-4-ethoxy-1-(4-fluorophenyl)-2-oxo-1,2-dihydropyridin-3-carboxamide]
MET
  pIC50: 7.57
RON
  pIC50: 7.07

## Cc1ccc(C(=O)Nc2ccc(Oc3ccc(O)c(-c4ccnc(N)n4)c3)c(F)c2)c(=O)n1-c1ccc(F)cc1 [Example 40, N-(4-(3-(2-aminopyrimidin-4-yl)-4-hydroxyphenoxy)-3-fluorophenyl)-1-(4-fluorophenyl)-6-methyl-2-oxo-1,2-dihydropyridin-3-carboxamide]
MET
  pIC50: 8.40

## Nc1nccc(-c2cc(Oc3ccc(NC(=O)C4(C(=O)Nc5ccc(F)cc5)CC4)cc3F)ccc2O)n1 [Example 41, N-(4-(3-(2-aminopyrimidin-4-yl)-4-hydroxyphenoxy)-3-fluorophenyl)-N-(4-fluorophenyl)cyclopropan-1,1-dicarboxamide]
MET
  pIC50: 7.15
RON
  pIC50: 6.44

## COc1ccn(-c2ccc(F)cc2)c(=O)c1C(=O)Nc1ccc(Oc2ccc(O)c(-c3ccnc(N)n3)c2)c(F)c1 [Example 42, N-(4-(3-(2-aminopyrimidin-4-yl)-4-hydroxyphenoxy)-3-fluorophenyl)-1-(4-fluorophenyl)-4-methoxy-2-oxo-1,2-dihydropyridin-3-carboxamide]
MET
  pIC50: 7.28
RON
  pIC50: 6.45

## Cc1c(C(=O)Nc2ccc(Oc3ccc(O)c(-c4ccnc(N)n4)c3)c(F)c2)c(=O)n(-c2ccccc2)n1C [Example 43, N-(4-(3-(2-aminopyrimidin-4-yl)-4-hydroxyphenoxy)-3-fluorophenyl)-1,5-dimethyl-3-oxo-2-phenyl-2,3-dihydro-1H-pyrazol-4-carboxamide]
MET
  pIC50: 7.32
RON
  pIC50: 6.55

## Nc1nccc(-c2cc(Oc3ccc(NC(=O)c4cc(Br)cn(-c5ccc(F)cc5)c4=O)cc3F)ccc2O)n1 [Example 44, N-(4-(3-(2-aminopyrimidin-4-yl)-4-hydroxyphenoxy)-3-fluorophenyl)-5-bromo-1-(4-fluorophenyl)-2-oxo-1,2-dihydropyridin-3-carboxamide]
MET
  pIC50: 7.34
RON
  pIC50: 6.86

## Nc1nccc(-c2cc(Oc3ccc(NC(=O)c4cccn(-c5ccc(F)cc5)c4=O)cc3F)ccc2O)n1 [Example 46, N-(4-(3-(2-aminopyrimidin-4-yl)-4-hydroxyphenoxy)-3-fluorophenyl)-1-(4-fluorophenyl)-2-oxo-1,2-dihydropyridin-3-carboxamide]
MET
  pIC50: 7.27
RON
  pIC50: 6.62

## Cn1cc(-c2cc(C(=O)Nc3ccc(Oc4ccc(O)c(-c5ccnc(N)n5)c4)c(F)c3)c(=O)n(-c3ccc(F)cc3)c2)cn1 [Example 47, N-(4-(3-(2-aminopyrimidin-4-yl)-4-hydroxyphenoxy)-3-fluorophenyl)-1-(4-fluorophenyl)-5-(1-methyl-1H-pyrazol-4-yl)-2-oxo-1,2-dihydropyridin-3-carboxamide]
MET
  pIC50: 6.75
RON
  pIC50: 6.05
